Results on 22 compounds are retold here after US11878975B2, “Substituted indole compounds useful as TLR inhibitors” (BRISTOL-MYERS SQUIBB COMPANY, priority 2017, dated 2024).

Format in all cases: cell-based
Assay [1] concerns the target T1, human TLR8 (Homo sapiens, UniProt Q9NR97).
T1 construct: host or cells: HEK-Blue cells
T1 sequence (Q9NR97 27-1041): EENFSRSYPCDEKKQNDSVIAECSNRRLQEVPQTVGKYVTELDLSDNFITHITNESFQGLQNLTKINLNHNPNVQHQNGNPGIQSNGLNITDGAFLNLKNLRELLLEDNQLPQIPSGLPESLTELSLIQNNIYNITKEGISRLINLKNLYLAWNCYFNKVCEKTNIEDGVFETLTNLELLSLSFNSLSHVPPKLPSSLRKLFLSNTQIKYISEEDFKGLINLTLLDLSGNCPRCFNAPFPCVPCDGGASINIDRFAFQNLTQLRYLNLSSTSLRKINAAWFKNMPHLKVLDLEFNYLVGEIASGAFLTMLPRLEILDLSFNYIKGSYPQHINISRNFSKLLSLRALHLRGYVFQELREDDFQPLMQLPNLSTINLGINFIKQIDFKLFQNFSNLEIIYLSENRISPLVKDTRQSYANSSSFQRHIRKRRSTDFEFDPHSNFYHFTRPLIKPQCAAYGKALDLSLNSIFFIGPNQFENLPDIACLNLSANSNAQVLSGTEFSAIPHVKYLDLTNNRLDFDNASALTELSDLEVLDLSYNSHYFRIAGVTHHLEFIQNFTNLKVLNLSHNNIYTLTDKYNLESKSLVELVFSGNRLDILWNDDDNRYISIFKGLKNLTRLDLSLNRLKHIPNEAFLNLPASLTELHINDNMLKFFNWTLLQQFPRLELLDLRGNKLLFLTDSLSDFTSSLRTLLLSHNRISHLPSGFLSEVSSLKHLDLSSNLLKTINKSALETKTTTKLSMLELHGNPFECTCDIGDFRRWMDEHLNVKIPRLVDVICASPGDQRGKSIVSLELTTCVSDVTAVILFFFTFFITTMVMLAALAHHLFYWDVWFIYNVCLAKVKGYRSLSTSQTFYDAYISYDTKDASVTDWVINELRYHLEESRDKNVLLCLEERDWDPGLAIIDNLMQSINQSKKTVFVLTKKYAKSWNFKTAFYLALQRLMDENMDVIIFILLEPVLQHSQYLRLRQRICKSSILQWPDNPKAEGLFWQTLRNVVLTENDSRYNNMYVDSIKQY
Description: TLR8 inhibition reporter assay (HEK-Blue cells, SEAP reporter, R848 stimulation). The conditions noted are these: HEK-Blue cells overexpressing human TLR8, SEAP reporter, R848 15.9 μM. In outline:
(§1)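 Dose range 0.05 nM–50 μM; 30 min preincubation, RT. Agonists: TLR7 gardiquimod 7.5 μM, TLR8 R848 15.9 μM, TLR9 ODN2006 5 nM. 22 h, 37 °C, 5% CO2. SEAP (IFN-β minimal promoter with NF-κB/AP-1 sites) via colorimetric detection medium; % inhibition vs agonist+DMSO and reference-inhibitor wells.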

The target in assay [2] is T2, human TLR7 (Homo sapiens, UniProt Q9NYK1).
T2 construct: host or cells: HEK-Blue cells
T2 sequence (Q9NYK1 27-1049): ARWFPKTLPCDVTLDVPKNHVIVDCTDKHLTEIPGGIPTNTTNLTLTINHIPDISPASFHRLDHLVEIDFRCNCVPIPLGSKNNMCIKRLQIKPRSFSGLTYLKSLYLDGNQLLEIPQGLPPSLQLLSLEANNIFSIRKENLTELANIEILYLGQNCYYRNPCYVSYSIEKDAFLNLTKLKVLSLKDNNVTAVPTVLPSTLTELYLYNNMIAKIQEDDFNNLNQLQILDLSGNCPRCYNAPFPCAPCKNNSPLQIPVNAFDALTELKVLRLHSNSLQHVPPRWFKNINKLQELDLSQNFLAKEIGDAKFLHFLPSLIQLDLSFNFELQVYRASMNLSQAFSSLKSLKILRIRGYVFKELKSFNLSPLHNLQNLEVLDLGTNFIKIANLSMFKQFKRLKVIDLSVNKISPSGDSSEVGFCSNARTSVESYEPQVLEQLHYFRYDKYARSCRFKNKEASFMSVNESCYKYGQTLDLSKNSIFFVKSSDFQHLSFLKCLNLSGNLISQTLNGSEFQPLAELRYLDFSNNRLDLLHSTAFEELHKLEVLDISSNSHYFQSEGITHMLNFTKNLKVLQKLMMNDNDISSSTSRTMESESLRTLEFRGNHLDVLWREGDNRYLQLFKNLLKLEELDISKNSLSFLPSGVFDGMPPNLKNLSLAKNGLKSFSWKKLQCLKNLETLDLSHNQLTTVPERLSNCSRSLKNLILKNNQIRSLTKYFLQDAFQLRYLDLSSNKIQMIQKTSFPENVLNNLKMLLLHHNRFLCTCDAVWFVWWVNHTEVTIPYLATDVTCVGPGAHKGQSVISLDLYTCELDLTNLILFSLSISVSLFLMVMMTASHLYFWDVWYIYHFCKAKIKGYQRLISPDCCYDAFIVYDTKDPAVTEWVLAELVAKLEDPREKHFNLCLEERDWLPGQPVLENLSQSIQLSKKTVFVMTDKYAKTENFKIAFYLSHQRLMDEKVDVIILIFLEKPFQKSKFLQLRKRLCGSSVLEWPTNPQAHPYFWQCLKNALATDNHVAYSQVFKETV
Description: TLR7 inhibition reporter assay (HEK-Blue cells, SEAP reporter, gardiquimod stimulation). As to conditions: HEK-Blue cells overexpressing human TLR7, SEAP reporter, gardiquimod 7.5 μM. Summed up:
as §1

The target of assay [3] is T3, human TLR9 (Homo sapiens, UniProt Q9NR96).
T3 construct: host or cells: HEK-Blue cells
T3 sequence (Q9NR96 26-1032): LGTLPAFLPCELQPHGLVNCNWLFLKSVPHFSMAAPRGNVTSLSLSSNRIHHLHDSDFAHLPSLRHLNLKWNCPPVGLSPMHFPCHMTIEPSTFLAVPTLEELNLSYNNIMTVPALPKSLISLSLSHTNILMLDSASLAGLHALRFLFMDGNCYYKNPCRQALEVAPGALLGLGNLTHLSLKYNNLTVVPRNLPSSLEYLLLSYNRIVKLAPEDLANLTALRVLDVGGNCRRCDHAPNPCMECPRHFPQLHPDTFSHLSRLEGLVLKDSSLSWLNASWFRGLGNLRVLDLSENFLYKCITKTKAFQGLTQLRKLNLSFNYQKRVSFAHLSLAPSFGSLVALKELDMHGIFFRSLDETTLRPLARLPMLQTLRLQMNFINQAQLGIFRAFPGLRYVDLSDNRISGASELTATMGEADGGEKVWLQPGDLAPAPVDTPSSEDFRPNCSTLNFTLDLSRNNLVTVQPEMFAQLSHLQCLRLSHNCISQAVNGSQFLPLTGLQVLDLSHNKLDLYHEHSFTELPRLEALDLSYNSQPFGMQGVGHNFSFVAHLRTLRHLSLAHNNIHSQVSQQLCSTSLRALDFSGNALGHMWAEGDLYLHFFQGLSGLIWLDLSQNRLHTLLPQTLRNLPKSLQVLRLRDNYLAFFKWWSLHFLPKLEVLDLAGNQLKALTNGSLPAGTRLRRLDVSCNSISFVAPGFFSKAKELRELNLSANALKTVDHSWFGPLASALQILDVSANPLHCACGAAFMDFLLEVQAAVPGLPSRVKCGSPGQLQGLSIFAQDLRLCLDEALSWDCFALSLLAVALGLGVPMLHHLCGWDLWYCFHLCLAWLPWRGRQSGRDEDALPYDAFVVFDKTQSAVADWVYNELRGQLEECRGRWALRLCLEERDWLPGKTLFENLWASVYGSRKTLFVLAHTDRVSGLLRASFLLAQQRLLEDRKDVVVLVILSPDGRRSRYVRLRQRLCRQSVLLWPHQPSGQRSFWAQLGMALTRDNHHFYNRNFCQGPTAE
Description: TLR9 inhibition reporter assay (HEK-Blue cells, SEAP reporter, ODN2006 stimulation). The conditions noted are these: HEK-Blue cells overexpressing human TLR9, SEAP reporter, ODN2006 5 nM. Summed up: as §1

Molecules are shown by their SMILES. A value given as a limit tells only on which side of the number the result lay.

Broadly, the IC50 is the concentration that inhibits the measured activity by half. A lower IC50 goes with inhibition by little substance. Regarding `COc1cc(-c2[nH]c3ccc(C4CCC(N5CC(F)C5)CC4)cc3c2C(C)C)cn2ncnc12` (stereo not drawn) [Example 21], the 50% inhibitory concentration (IC50) in assay [1] was 1.2 nM; in assay [2] it was 0.41 nM; in assay [3], 2380 nM.
In the same order, the values of `Cc1c(-c2[nH]c3ccc(C4CN(CCS(C)(=O)=O)CCO4)cc3c2C(C)C)cn2ncnc2c1C` (stereo not drawn) [Example 346] are 24 nM, 25 nM and above 50000 nM.
For `Cc1cc(-c2[nH]c3ccc(C4CN(C(C)C)CCO4)cc3c2C(C)C)cc(C)n1` (stereo not drawn) [Example 305], the concentration for half-maximal inhibition (IC50) in assay [1] stood at 0.94 nM; in assay [2] it was 32 nM; in assay [3], 1010 nM.
On to `CC(C)c1c(-c2ccnc3[nH]ncc23)[nH]c2ccc(CN3CCCCC3)cc12` [Example 443], for which the 50% inhibitory concentration (IC50) in assay [1] turned out to be 158 nM; in assay [2], 279 nM; in assay [3], 2850 nM.
In the case of `COc1cc(-c2[nH]c3ccc(C4CCCN(CC(=O)N(C)C)C4)cc3c2C(C)C)cn2ncnc12` (stereo not drawn) [Example 224], the half-maximal inhibitory concentration (IC50) is 16 nM in assay [1], 2 nM in assay [2] and 1830 nM in assay [3].
With `Cc1cc(-c2[nH]c3ccc(C4CCC(C(=O)N5CCOCC5)CC4)cc3c2C(C)C)cn2ncnc12` (stereo not drawn) [Example 161], the IC50 in assay [1] turned out to be 59 nM; in assay [2], 3 nM; in assay [3], 4800 nM.
In the same order, the values of `COc1cc(-c2[nH]c3ccc(C4CCCN(C)C4)cc3c2C(C)C)cn2ncnc12` (stereo not drawn) [Example 238] are 0.75 nM, 0.81 nM and 1240 nM.
The like results for `Cc1cc(-c2[nH]c3ccc(CCN4CC[C@@H](F)C4)cc3c2C(C)C)cn(C)c1=O` [Example 410] were, in that order, 0.72 nM, 13 nM and 15600 nM.
With `Cc1cc(-c2[nH]c3ccc(C4CCC(N5CCOCC5)CC4)cc3c2C(C)C)cc(C)n1` (stereo not drawn) [Example 498], the IC50 in assay [1] came to 18 nM; in assay [2] it was 5 nM; in assay [3], 531 nM.
In the same order, the values of `COc1cc(-c2[nH]c3ccc(C4CCC(NC5CC5)CC4)cc3c2C(C)C)cn2ncnc12` (stereo not drawn) [Example 11] are 3.7 nM, 2 nM and 2070 nM.
Turning to `Cc1c(-c2[nH]c3ccc(C4CN(C5COC5)C4)cc3c2C(C)C)cn2cnnc2c1C` [Example 540], the IC50 in assay [1] came to 36 nM; in assay [2], 19 nM; in assay [3], 18600 nM.
As for `Cc1cc(-c2[nH]c3ccc(C4CCCN(C(=O)C5(C)CC5)C4)cc3c2C(C)C)cc(C)n1` (stereo not drawn) [Example 199], the IC50 in assay [1] turned out to be 427 nM; in assay [2], 89 nM; in assay [3] it was 36900 nM.
Regarding `Cc1cc(-c2[nH]c3ccc(C4CN(C5CCS(=O)(=O)CC5)C4)cc3c2C(C)C)cc(C)n1` [Example 270], the values for the IC50 in assay [1], in assay [2] and in assay [3] were 20 nM, 14 nM and 888 nM, respectively.
In the same order, the values of `Cc1cc(-c2[nH]c3ccc(C4CCC(N5CCOCC5)CC4)cc3c2C(C)C)cc(C)n1` (stereo not drawn) [Example 55] are 15 nM, 8 nM and 480 nM.
With `Cc1cc(-c2[nH]c3ccc(CCN4CCS(=O)(=O)CC4)cc3c2C(C)C)cn(C)c1=O` [Example 402], the IC50 in assay [1] was 74 nM; in assay [2] it was 108 nM; in assay [3], above 50000 nM.
In the same order, the values of `Cc1c(-c2[nH]c3ccc(C4CC(N(C)C)C4)cc3c2C(C)C)cn2ncnc2c1C` (stereo not drawn) [Example 574] are 0.58 nM, 1 nM and 4250 nM.
In the same order, the values of `Cc1c(-c2[nH]c3ccc(C4CNC4)cc3c2C(C)C)cn2cnnc2c1C` [Example 531] are 137 nM, 57 nM and 10200 nM.
As to `Cc1c(-c2[nH]c3ccc(C4CC5CN(C6CCOCC6)CC5C4)cc3c2C(C)C)cn2cnnc2c1C` (stereo not drawn) [Example 563], the 50% inhibitory concentration (IC50) in assay [1] stood at 3130 nM; in assay [2], 1270 nM; in assay [3], 38200 nM.
In the same order, the values of `Cc1cc(-c2[nH]c3ccc(CC4CCCN4)cc3c2C(C)C)cn2ncnc12` (stereo not drawn) [Example 398, 2-{8-methyl-[1,2,4]triazolo[1,5-a]pyridin-6-yl}-3-(propan-2-yl)-5-[(pyrrolidin-2-yl)methyl]-1H-indole] are 3.5 nM, 1 nM and 1580 nM.
The like results for `COc1ccc(CNC2CCC(c3ccc4[nH]c(-c5cc(C)nc(C)c5)c(C(C)C)c4c3)CC2)cc1` (single isomer, unassigned) [Example 50] were, in that order, 149 nM, 68 nM and 622 nM.
The like results for `Cc1c(-c2[nH]c3ccc(C4CCC(NC(=O)CN(C)C)CC4)cc3c2C(C)C)cn2ncnc2c1C` (stereo not drawn) [Example 124] were, in that order, 12 nM, 9 nM and 8180 nM.
As to `Cc1c(-c2[nH]c3ccc(CC4CCCN4C4CCOCC4)cc3c2C(C)C)cn2cnnc2c1C` (stereo not drawn) [Example 429], the concentration for half-maximal inhibition (IC50) in assay [1] stood at 17 nM; in assay [2] it was 11 nM; in assay [3], 6780 nM.
